# Laboratory results published in patent US20230416239A1, “COMPOUNDS AND METHODS FOR TREATING A CYTOKINE-MEDIATED DISEASE” (CONSERVATOIRE NATIONAL DES ARTS ET MÉTIERS, priority 2020, published 2023).
# Tests used:
# [1] = target: TNFα (Homo sapiens, UniProt P01375); test: Immunoassay binding test, TNFa; details: compounds 100 to 0.78 μM; TNFα 10 ng/ml, receptor 100 ng/ml; read-out: BINDING TNF IC50
# Outline: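 ELISA-type binding test: receptor-coated plates blocked with 2% BSA, then cytokine (six-point dilution series) preincubated 2 h at 37 °C and bound overnight at 4 °C. Detection used biotinylated anti-cytokine antibody and avidin-HRP, read as OD at 450 nm. For IL-6, IL-6Ra was present at 200 ng/ml final.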
# [2] = target: IL-13 (Homo sapiens, UniProt P35225); test: Immunoassay binding test, IL-13; details: for IC50: IL-13 400 ng/ml, receptor 100 ng/ml, read-out: BINDING IL13 IC50
# Outline: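 Receptor-coated plates; compounds (100 to 0.78 μM final) preincubated 2 h at 37° C with fixed cytokine, then bound to receptor overnight at 4° C. Bound cytokine detected with biotinylated anti-cytokine antibody and avidin-HRP, OD 450 nm.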
# [3] = target: TNFa/TNFRI interaction (Homo sapiens, UniProt P01375); test: TNFa/TNFRI interaction displacement test; type: binding; details: compounds at 50 μM; human TNFRI 100 ng/ml
# Outline: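 Plates coated overnight at 4° C with human TNFRI (100 ng/ml) and blocked with 2% BSA, then test mixtures were incubated overnight at 4° C. Bound cytokine detected with biotinylated anti-cytokine antibody (2 h, 37° C) and avidin-HRP, read as OD at 450 nm.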
# [4] = target: IL-6 (Homo sapiens, UniProt P05231); test: Immunoassay binding test, IL-6 (gp130 receptor, IL-6Ra present); details: IL-6Ra 200 ng/ml
# Outline: (§1)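 Compounds (final 100 to 0.78 μM) were preincubated 2 h at 37 °C with a fixed amount of cytokine; for IL-6, IL-6Ra was also present at 200 ng/ml final. Mixtures were then incubated overnight at 4 °C on receptor-coated plates. Bound cytokine was detected with biotinylated anti-cytokine antibody and avidin-HRP, read as OD at 450 nm.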
# [5] = target: T1, IL-4 (Homo sapiens, UniProt P05112); test: Immunoassay binding test, IL-4; details: for IC50: IL-4 400 ng/ml, receptor 100 ng/ml, read-out: BINDING IL4 IC50
# T1 sequence (P05112 25-153): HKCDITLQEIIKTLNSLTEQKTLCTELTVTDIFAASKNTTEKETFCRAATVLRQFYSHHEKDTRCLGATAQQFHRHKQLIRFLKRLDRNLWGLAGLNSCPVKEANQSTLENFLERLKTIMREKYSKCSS
# Outline: as §1
# TNFα, sequence (P01375 77-233 limits assumed, species assumed): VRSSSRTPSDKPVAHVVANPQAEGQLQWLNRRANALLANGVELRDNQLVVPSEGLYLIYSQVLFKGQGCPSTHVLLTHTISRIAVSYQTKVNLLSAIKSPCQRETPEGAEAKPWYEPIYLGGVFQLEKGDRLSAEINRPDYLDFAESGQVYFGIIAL
# TNFa/TNFRI interaction, sequence (P01375 77-233 limits assumed): as the sequence (P01375 77-233 limits assumed, species assumed) above
# IL-6, sequence (P05231 30-212, species assumed): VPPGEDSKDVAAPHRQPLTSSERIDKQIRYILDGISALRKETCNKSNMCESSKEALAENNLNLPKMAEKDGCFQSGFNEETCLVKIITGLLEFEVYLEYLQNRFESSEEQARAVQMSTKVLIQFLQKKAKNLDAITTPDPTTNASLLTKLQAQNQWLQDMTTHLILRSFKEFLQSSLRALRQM
# IL-13, sequence (P35225 25-146, species assumed): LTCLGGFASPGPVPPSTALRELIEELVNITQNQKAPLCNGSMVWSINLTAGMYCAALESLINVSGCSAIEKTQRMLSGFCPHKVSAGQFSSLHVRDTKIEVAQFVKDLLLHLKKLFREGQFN
IC50 [1] [µM],BINDING IL13 % Neutra at 100 μM [2] [%],IC50 [2] [µM],Displacement (%) [3] [%],BINDING IL6 % Neutra at 100 μM [4] [%],BINDING IL4 % Neutra at 100 μM [5] [%],IC50 [5] [µM],Compound
8.4,91.6,15.2,115,0,92.7,5.2,"CN(CCCCCN(Cc1ccnc(F)c1)Cc1cn(S(=O)(=O)c2ccccc2)c2ccccc12)C1CCCCC1 [Compound 53, N1-cyclohexyl-N5-((2-fluoropyridin-4-yl)methyl)-N1-methyl-N5-((1-(phenylsulfonyl)-1H-indol-3-yl)methyl)pentane-1,5-diamine]"
11.7,92.5,47.4,85,0,88.4,3,"CN(CCCCCN(Cc1cccc(F)n1)Cc1cn(S(=O)(=O)c2ccccc2)c2ccccc12)C1CCCCC1 [Compound 54, N1-cyclohexyl-N5-((6-fluoropyridin-2-yl)methyl)-N1-methyl-N5-((1-(phenylsulfonyl)-1H-indol-3-yl)methyl)pentane-1,5-diamine]"
13.2,93.4,10.2,124,0,91.9,2.6,O=S(=O)(c1ccccc1)n1cc(CN(CCCCCNC2CCCCC2)Cc2ccc(F)nc2)c2ccccc21 [Compound 56]
6.7,89.1,10.4,126,1,92.5,2.1,CN(CCCCCN(Cc1ccc(F)nc1)Cc1cn(S(=O)(=O)c2ccccc2)c2ccccc12)C1CCCCC1 [Compound 58]
35.8,59.3,> 50,78,0,89.4,43.9,NCCN(Cc1cccnc1)Cc1cn(S(=O)(=O)c2ccccc2)c2ccccc12 [Compound 59]
> 50,0,,2,0,36.4,,O=[N+]([O-])c1ccccc1S(=O)(=O)NCCCN(Cc1cccnc1)Cc1cn(S(=O)(=O)c2ccccc2)c2ccccc12 [Compound 60]
26.8,67.9,38.5,105,0,81.5,7.8,O=S(=O)(c1ccccc1)n1cc(CN(CCCCCNCc2cccnc2F)Cc2cccnc2F)c2ccccc21 [Compound 62]
26.5,55.4,> 50,88,0,85.9,16,NCCCCN(Cc1cccnc1F)Cc1cn(S(=O)(=O)c2ccccc2)c2ccccc12 [Compound 63]
8.9,83.9,28.2,197,0,90.7,5.1,"O=S(=O)(c1ccccc1)n1cc(CN(CCOCCNC2CCCCC2)Cc2cccnc2F)c2ccccc21 [Compound 64, N-(2-(2-(((2-fluoropyridin-3-yl)methyl) ((1-(phenylsulfonyl)-1H-indol-3-yl)methyl)amino)ethoxy)ethyl)cyclohexanaminee]"
6.4,85.1,36,215,3,89.1,4.7,"CCN(CCCCN(Cc1cccnc1F)Cc1cn(S(=O)(=O)c2ccccc2)c2ccccc12)C1CCCCC1 [Compound 66, N′-cyclohexyl-N′-ethyl-N^4-((2-fluoropyridin-3-yl)methyl)-N^4-((1-(phenylsulfonyl)-1H-indol-3-yl)methyl)butane-1,4-diamine]"
10,81.6,17.3,219,0,86.0,4.2,"CCCCN(CCCCN(Cc1cccnc1F)Cc1cn(S(=O)(=O)c2ccccc2)c2ccccc12)C1CCCCC1 [Compound 68, N′-butyl-N′-cyclohexyl-N^4-((2-fluoropyridin-3-yl)methy)-N^4-((1-(phenylsulfonyl)-1H-indol-3-yl)methyl)butane-1,4-diamine]"
12.1,79.7,> 50,121,0,93.6,5.6,"O=S(=O)(c1ccccc1)n1cc(CN(CCCCNC2CCC2)Cc2cccnc2F)c2ccccc21 [Compound 69, N′-cyclobutyl-N^4-((2-fluoropyridin-3-yl)methyl)-N^4-((1-(phenylsulfonyl)-1H-indol-3-yl)methyl)butane-1,4-diamine]"
11.5,69.6,> 100,126,1,92.4,13.5,"CN(CCCCN(Cc1cccnc1F)Cc1cn(S(=O)(=O)c2ccccc2)c2ccccc12)C1CCC1 [Compound 70, N′-cyclobutyl-N^4-((2-fluoropyridin-3-yl)methyl)-N′-methyl-N^4-((1-(phenylsulfonyl)-1H-indol-3-yl)methyl)butane-1,4-diamine]"
9.7,92.1,> 50,208,3,89.8,8.1,"CN(CCCCN(Cc1cccnc1F)Cc1cn(S(=O)(=O)c2ccccc2)c2ccccc12)C1CCCC1 [Compound 72, N′-cyclopentyl-N^4-((2-fluoropyridin-3-yl)methyl)-N′-methyl-N^4-((1-(phenylsulfonyl)-1H-indol-3-yl)methyl)butane-1,4-diamine]"
8.4,87.2,14.9,161,0,91.0,6,"O=S(=O)(c1ccccc1)n1cc(CN(CCCCNC2CCCCCC2)Cc2cccnc2F)c2ccccc21 [Compound 73, N′-cycloheptyl-N^4-((2-fluoropyridin-3-yl)methyl)-N^4-((1-(phenylsulfonyl)-1H-indol-3-yl)methyl)butane-1,4-diamine]"
6.6,87.3,> 50,160,0,91.9,5.7,"CN(CCCCN(Cc1cccnc1F)Cc1cn(S(=O)(=O)c2ccccc2)c2ccccc12)C1CCCCCC1 [Compound 74, N′-cycloheptyl-N^4-((2-fluoropyridin-^3-yl)methyl)-N′-methyl-N^4-((1-(phenylsulfonyl)-1H-indol-^3-yl)methyl)butane-1,4-diamine]"
